# The supplement of paper PMC10307832
# Columns and labels:
# Test in all cases: relative viability (nuclei count vs DMSO), 5 days (fraction); higher = more cells survive
# [1] = compound: CN(C/C=C/C1=CC=C(C=C1)Cl)CC2=CC=CC=C2N(CCO)S(=O)(=O)C3=CC=C(C=C3)OC [KN-93] + Nc1ncn([C@H]2C[C@H](O)[C@@H](CO)O2)c(=O)n1 [Decitabine] (partner 2 µM)
# How it was run: (§1)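 Values are medians from duplicate plates. Each reflects relative viability, defined as the nuclei count of treated wells over that of vehicle wells. Lung cancer cell lines in 1536-well plates were pin-tool dosed one day after seeding with one drug alone or with a fixed anchor-drug dose plus five library-drug doses (not always all listed) in √10 steps, then fixed, stained and imaged at 4× after 5 days.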
# [2] = compound: CN(C/C=C/C1=CC=C(C=C1)Cl)CC2=CC=CC=C2N(CCO)S(=O)(=O)C3=CC=C(C=C3)OC [KN-93] + CS(=O)(=O)N1CCN(Cc2cc3nc(-c4cccc5[nH]ncc45)nc(N4CCOCC4)c3s2)CC1 [Pictilisib] (partner 1 µM)
# How it was run: as §1
# [3] = compound: CN(C/C=C/C1=CC=C(C=C1)Cl)CC2=CC=CC=C2N(CCO)S(=O)(=O)C3=CC=C(C=C3)OC [KN-93] + CC1(C)CCC(c2ccc(Cl)cc2)=C(CN2CCN(c3ccc(C(=O)NS(=O)(=O)c4ccc(N[C@H](CCN5CCOCC5)CSc5ccccc5)c(S(=O)(=O)C(F)(F)F)c4)cc3)CC2)C1 [Navitoclax] (partner 0.5 µM)
# How it was run: as §1
# [4] = compound: CN(C/C=C/C1=CC=C(C=C1)Cl)CC2=CC=CC=C2N(CCO)S(=O)(=O)C3=CC=C(C=C3)OC [KN-93] + COc1cccc2cc(-c3nc([C@H]4CC[C@H](C(=O)O)CC4)n4ncnc(N)c34)[nH]c12 [OSI-027] (partner 0.5 µM)
# How it was run: as §1
# [5] = compound: CN(C/C=C/C1=CC=C(C=C1)Cl)CC2=CC=CC=C2N(CCO)S(=O)(=O)C3=CC=C(C=C3)OC [KN-93]
# How it was run: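 Viability was defined as treated-well nuclei divided by vehicle-well nuclei, with the median taken over replicate plates. Cells from lung cancer lines sat overnight at 37 °C in 1536-well plates, received five √10-spaced library-drug doses by pinning on vehicle-anchored plates, and grew 5 days without medium change before one-step fixation, permeabilisation and Hoechst staining, 4× imaging and MetaXpress nuclear counts. Only plates with control CV under 25% and at least one doubling were kept.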
Cell Line,relative viability ([1]; first compound 0.08 µM),relative viability ([1]; first compound 0.253 µM),relative viability ([1]; first compound 2.53 µM),relative viability ([1]; first compound 8 µM),relative viability ([2]; first compound 0.08 µM),relative viability ([2]; first compound 0.253 µM),relative viability ([2]; first compound 2.53 µM),relative viability ([2]; first compound 8 µM),relative viability ([3]; first compound 0.08 µM),relative viability ([3]; first compound 0.253 µM),relative viability ([3]; first compound 2.53 µM),relative viability ([3]; first compound 8 µM),relative viability ([4]; first compound 0.08 µM),relative viability ([4]; first compound 0.253 µM),relative viability ([4]; first compound 2.53 µM),relative viability ([4]; first compound 8 µM),relative viability ([5]; 0.08 µM),relative viability ([5]; 0.253 µM),relative viability ([5]; 2.53 µM),relative viability ([5]; 8 µM)
201T,0.866,0.887,0.758,0.583,0.756,0.583,0.672,0.63,1.23,1.21,1.19,1.07,0.789,0.558,0.884,0.373,1.03,0.85,0.958,0.684
A-427,0.579,0.511,0.546,0.496,0.732,0.69,0.635,0.512,0.93,0.843,0.991,0.664,0.507,0.621,0.462,0.265,1.03,1.21,0.976,0.531
ABC-1,1.37,1,1.17,0.411,0.638,0.721,0.738,0.264,,,,,0.455,0.294,0.509,0.257,0.999,0.99,0.773,0.312
BEN,0.74,0.758,0.926,0.537,,0.549,0.618,0.381,,0.062,0.0593,0.0709,0.323,0.308,0.304,0.304,0.881,0.969,1.08,0.688
CAL-12T,,,,,0.498,0.367,0.605,0.326,1.2,1.19,1.53,1.23,0.718,0.59,0.657,0.434,1.09,0.983,1.09,0.744
COR-L23,0.459,0.409,0.495,0.35,0.796,0.892,0.997,0.414,0.877,1.02,1.37,0.626,0.748,1.02,0.798,0.353,0.848,1.09,1.08,0.665
COR-L 105,0.635,0.657,0.667,0.634,0.413,0.354,0.388,0.29,0.733,0.639,0.731,0.514,0.618,0.771,0.588,0.437,1.02,0.932,0.808,0.682
ChaGo-K-1,0.559,0.528,0.541,0.457,1.27,0.851,0.718,0.454,1.58,1.08,1,0.54,0.585,0.512,0.449,0.426,0.887,1.14,0.999,0.72
EKVX,0.332,0.289,0.342,0.319,0.396,0.329,0.437,0.39,0.824,0.742,1.13,0.305,0.536,0.75,0.743,0.552,0.839,0.768,1.04,0.691
EMC-BAC-2,0.996,0.98,0.969,0.693,0.477,0.608,0.542,0.433,0.845,1.32,1.37,1.05,0.373,0.355,0.389,0.337,1.05,1.04,1.08,0.794
EPLC-272H,0.372,0.368,0.383,0.309,0.338,0.365,0.294,0.276,0.945,1.27,1.18,0.849,0.218,0.295,0.297,0.219,0.899,0.965,0.92,0.59
H3255,0.603,0.728,0.54,0.474,0.422,0.527,0.492,0.391,0.56,0.511,0.55,0.124,0.615,0.515,0.619,0.431,1.03,0.992,0.969,0.666
HARA,0.572,0.554,0.641,0.506,0.366,0.36,0.3,0.2,0.983,1.22,1.02,0.687,0.427,0.457,0.413,0.138,0.871,0.943,0.827,0.565
HCC-15,0.546,0.62,0.707,0.309,0.547,0.866,0.861,0.524,0.539,0.718,0.794,0.579,0.558,0.722,0.636,0.527,0.862,1.03,1.08,0.893
HCC-44,1.05,0.929,1.03,0.915,0.728,0.569,0.503,0.398,0.852,0.892,0.951,0.752,0.547,0.482,0.555,0.391,1.02,0.912,1.12,0.764
